Test results from US20260042847A1, “CYSTEINE ENGINEERED ANTIBODY CONSTRUCTS, CONJUGATES AND METHODS OF USE” (ZYMEWORKS INC., priority 2021, published 2026).
Square brackets hold non-standard residues; d marks the D form. Peptide text beside a SMILES is read from it. * marks the point of attachment. Dolaproine = CO[C@@H]([C@@H]1CCCN1)[C@@H](C)C(=O)O; Dil = CC[C@H](C)[C@H](NC)[C@@H](CC(=O)O)OC; X1 = C[C@@H](N*)[C@@H](O)c1ccccc1; NMeV = CN[C@H](C(=O)O)C(C)C

Assays:
Assay type in all cases: cell-based
[1] = test system: HCC827 cell line (mid c-Met expressing); experiment: In vitro cytotoxicity (CellTiter-Glo), HCC827; conditions: 4 nights incubation; n = 2
Protocol: (§1) Cytotoxicity of the ADCs from Example 3 comprising either MCvcPABC-MMAE or MTvcCompound 1 was tested in vitro against a variety of tumor cell lines expressing the target surface antigen (c-Met) as described below. The following cell lines were used (Table 9.1).
(§2) Each of the cell lines shown in Table 9.1 was grown in the respective complete growth medium until assay day. After removal from the culture vessels using Trypsin-EDTA, cells were counted using a Scepter™ Cell Counter (Sigma-Aldrich Canada, Oakville, ON). Cells were diluted in complete growth medium to 20,000 cells/mL, such that 50 μL/well in 384-well plates equaled 1,000 cells/well, unless otherwise specified. All ADCs were diluted to 15 nM starting concentration in complete growth medium (RPMI 1640) followed by a 1:3 dilution in sterile 96-well dilution plates (final volume 200 μL/well). Samples (20 μL/well) were transferred into a 384-well plate in duplicate. Plates were then seeded with 20,000 cell/mL suspension of test cell line (50 μL/well), unless otherwise specified. […] After incubation, cell viability was quantified by adding 1×CellTiter-Glo® reagent (Promega Corporation, Madison, WI) at 10 μL/well. After incubating for 30 min in the dark, luminescence was measured using a Synergy™ H1 Hybrid Multi-Mode Reader (BioTek Instruments Inc., Winooski, VT). Data was analyzed with Prism 7 software (GraphPad Prism Software).

[2] = test system: BT-20 cell line (low c-Met expressing); experiment: In vitro cytotoxicity (CellTiter-Glo), BT-20; conditions: 4 nights incubation; n = 2; IC = cytotoxicity shown but curve not optimal for accurate EC50
Protocol: as §1, §2

[3] = test system: H292 cell line (mid c-Met expressing); experiment: In vitro cytotoxicity (CellTiter-Glo), H292; conditions: 4 nights incubation; n = 2; IC = cytotoxicity shown but curve not optimal for accurate EC50
Protocol: as §1, §2

[4] = test system: EBC-1 cell line (high c-Met-expressing); experiment: In vitro cytotoxicity (CellTiter-Glo), EBC-1; conditions: 4 nights incubation; n = 2
Protocol: as §1, §2

CC[C@H](C)[C@@H]([C@@H](CC(=O)N1CCC[C@H]1[C@H](OC)[C@@H](C)C(=O)N[C@H](C)[C@@H](O)c1ccccc1)OC)N(C)C(=O)[C@@H](NC(=O)[C@@H](NC)C(C)C)C(C)C [MMAE] (H-[NMeV]V[Dil][Dolaproine]-X1)
EC50 [1]: 0.36 nM | EC50 [2]: 0.13 nM | EC50 [3]: 0.11 nM | EC50 [4]: 0.16 nM
